Assay results taken from patent US6900206B2, “Indole, azaindole and related heterocyclic sulfonylureido piperazine derivatives” (priority 2002, dated 2005).

test system: HIV-1 single-round infectious reporter virus; assay: microbe, parasite or virus in culture; type: cell-based; details: Human immunodeficiency virus 1, HeLa, 72 h, read-out: EC50 Group from Table 1
Description: • Virus production—Human embryonic Kidney cell line, 293T, was propagated in Dulbecco's Modified Eagle Medium (Invitrogen, Carlsbad, Calif.) containing 10% fetal Bovine serum (FBS, Sigma, St. Louis, Mo.). • Virus infection—Human epithelial cell line, HeLa, expressing the HIV-1 receptor CD4 was propagated in Dulbecco's Modified Eagle Medium (Invitrogen, Carlsbad, Calif.) containing 10% fetal Bovine serum (FBS, Sigma, St. Louis, Mo.) and supplemented with 0.2 mg/mL Geneticin (Invitrogen, Carlsbad, Calif.). Virus—Single-round infectious reporter virus was produced by co-transfecting human embryonic Kidney 293 cells with an HIV-1 envelope DNA expression vector and a proviral cDNA containing an envelope deletion mutation and the luciferase reporter gene inserted in place of HIV-1 nef sequences (Chen et al, Ref. 41). Transfections were performed using lipofectAMINE PLUS reagent as described by the manufacturer (Invitrogen, Carlsbad, Calif.). Experiment • 1. HeLa CD4 cells were plated in 96 well plates at a cell density of 1×10^4 cells per well in 100 μl Dulbecco's Modified Eagle Medium containing 10% fetal Bovine serum and incubated overnight. • 2. Compound was added in a 2 μl dimethylsulfoxide solution, so that the final assay concentration would be ≦10 μM. • 3. 100 μl of single-round infectious reporter virus in Dulbecco's Modified Eagle Medium was then added to the plated cells and compound at an approximate multiplicity of infection (MOI) of 0.01, resulting in a final volume of 200 μl per well. • 4. Virally-infected cells were incubated at 37 degrees Celsius, in a CO2 incubator, and harvested 72 h after infection. • 5. Viral infection was monitored by measuring luciferase expression from viral DNA in the infected cells using a luciferase reporter gene assay kit, as described by the manufacturer (Roche Molecular Biochemicals, Indianapolis, Ind.). Infected cell supernatants were removed and 50 μl of lysis buffer was added per well. After 15 minutes, 50 μl of freshly-reconstituted luciferase assay reagent was added per well. Luciferase activity was then quantified by measuring luminescence using a Wallac microbeta scintillation counter. • 6. […] An EC50 provides a method for comparing the antiviral potency of the compounds of this invention. The effective concentration for fifty percent inhibition (EC50) was calculated with the Microsoft Excel Xlfit curve fitting software. For each compound, curves were generated from percent inhibition calculated at 10 different concentrations by using a four paramenter logistic model (model 205). Table 1 is the key for the data in Table 2. Results

Row | SMILES | EC50 [µM]
1 | CNC(=O)c1ccc(F)c2c(C(=O)C(=O)N3CCN(S(=O)(=O)N(C)C)CC3)c[nH]c12 [Example 1] | < 1
2 | CNC(=O)c1ccc(F)c2c(C(=O)C(=O)N3CCN(S(=O)(=O)Nc4ccccc4)CC3)c[nH]c12 [Example 2] | 1 to 5
3 | CNC(=O)c1ccc(F)c2c(C(=O)C(=O)N3CCN(S(=O)(=O)N4CCOCC4)CC3)c[nH]c12 [Example 3] | > 5
4 | CNC(=O)c1ccc(F)c2c(C(=O)C(=O)N3CCN(S(=O)(=O)NC)CC3)c[nH]c12 [Example 4] | > 5
5 | COC(=O)c1ccc(F)c2c(C(=O)C(=O)N3CCN(S(=O)(=O)N(C)C)CC3)c[nH]c12 [Example 5] | > 5
6 | COC(=O)c1ccc(F)c2c(C(=O)C(=O)N3CCN(S(=O)(=O)N4CCC4)CC3)c[nH]c12 [Example 6] | > 5
7 | COC(=O)c1ccc(F)c2c(C(=O)C(=O)N3CCN(S(=O)(=O)N4CCCCC4)CC3)c[nH]c12 [Example 7] | 1 to 5
8 | CCN(CC)S(=O)(=O)N1CCN(C(=O)C(=O)c2c[nH]c3c(C(=O)OC)ccc(F)c23)CC1 [Example 8] | 1 to 5
9 | CNC(=O)c1ccc(F)c2c(C(=O)C(=O)N3CCN(S(=O)(=O)N4CCCCC4)CC3)c[nH]c12 [Example 9] | 1 to 5
10 | CNC(=O)c1ccc(F)c2c(C(=O)C(=O)N3CCN(S(=O)(=O)N4CCC4)CC3)c[nH]c12 [Example 10] | > 5
11 | CCN(CC)S(=O)(=O)N1CCN(C(=O)C(=O)c2c[nH]c3c(C(=O)NC)ccc(F)c23)CC1 [Example 11] | 1 to 5
12 | CN(C)S(=O)(=O)N1CCN(C(=O)C(=O)c2c[nH]c3c(-n4cncn4)ncc(F)c23)CC1 [Example 12] | < 1
